Results taken from patent publication US20230355815A1, “ACTIVE DELIVERY OF RADIOTRACERS ACROSS THE BLOOD BRAIN BARRIER” (The Board of Trustees of the Leland Stanford Junior …, priority 2021, published 2023).

Experiments:
TSPO = target: T1, TSPO (Mus musculus, UniProt P50637); assay: TSPO-PET/CT imaging of EAE mice; type: in vivo
T1 construct: endogenous in cells; host or cells: tissues of living C57BL/6 mice (EAE and naive)
Method: Mice were categorized as pre-symptomatic (pre; score 0, >1 g weight loss in 48 h), low (score 0.5-2), or high EAE (score 2.5-4.5). Anti-TREM1 monoclonal antibody (mAb) was DOTA-conjugated and radiolabeled with ^64Cu. PET/CT imaging was performed 20 hours post-injection of [^64Cu]TREM1-mAb (95-120 μCi, >99% RCP) or 50-60 min after TSPO-targeted radiotracer [^18F]GE-180 (231-269 μCi, >99% RCP). Following PET, mice were perfused to remove unbound intravascular tracer and radioactivity in central nervous system (CNS) tissues was measured using a gamma counter.
TREMl-PET is a more sensitive tool for detecting neuroinflammation in EAE compared to TSPO-PET Next, we examined the sensitivity of TREMl-PET compared to the gold standard approach for assessing neuroinflammation in vivo for both preclinical and clinical research—TSPO-PET. Naive and EAE mice were injected with [^18F]GE-180. a highly sensitive and selective tracer for TSPO in rodents (26), and PET images were acquired 50-60 min following tracer administration. […] Specifically, peritoneum adhesions encompassing the spleen. mesentery, and stomach, as well as abdominal granulomatous inflammation, have been reported in mice injected with CFA (27). […]
[^18F]GE-180 was synthesized as previously described (46). Chemical and radiochemical purity were determined by reverse-phase analytical HPLC (Phenomenex Luna column, 150×4.6 mm. particle size 3 μm. pore size 100 A) using a 11 min 50-95% gradient (0.1 mg/mL ascorbic acid in H2O:MeCN. monitored by gamma detection and UV at 254 and 280 nm). […]
PET images were analyzed using Vivoquant software (version 4.0. inviCRO) and visualized using Inveon Research Workspace (IRW, version 4.0: Siemens). Brain uptake was quantified as previously described (47). lo brief, a 3-dimensional mouse brain atlas was utilized to obtain tracer uptake values in a priori regions of interest (whole brain, pons. medulla. and cerebellum). Cervical/thoracic and lumbar spinal cord quantification was obtained via segmentation and exclusion of the vertebral column. […]

TREM1 = conditions: animal models of sepsis; cited from earlier work
TREM1 signaling = assay: LP17 treatment study in EAE mice; type: in vivo, mouse; conditions: vs saline
Method: Spinal cords were further analyzed via high-resolution autoradiography. Flow cytometry was performed on CNS tissues using TREM1, CD45, CD11b, CD11c, CD3, and Ly-6G to delineate immune cell populations. Quantitative PCR was performed to assess changes in mRNA expression. LP17, a decoy receptor peptide known to attenuate TREM1 signaling, was administered daily to pre EAE mice (10, 15 mg/kg, or saline i.p) for 10 days.
Blocking TREMi signaling genetically and pharmacologically attenuates EAE severity. To explore the biological relevance of TREMl in EAE development and progression, we assessed disease trajectory in KO EAE compared to WT EAE animals. While 83% of WT mice developed EAE, only 40% of Trem/KO mice developed symptoms during the same timeframe. […] Next, to determine if blocking TREM I signaling during disease development could have therapeutic effects, we treated WT EAE animals with LP 17 (10 or 15 mg/kg)—a 17 mer peptide decoy receptor, previously shown to attenuate TREMi signaling (25, 38)—and compared disease progression to vehicle (saline) treated mice.
LPI 7 peptide (sequence: […] […]) was synthesized by the Protein and Nucleic Acid Core Facility at Stanford University as previously described (J 9). WT EAE mice were induced with EAE and monitored daily as previously outlined. […] LP 17 or saline was administered daily (i.p) for 10 days and disease level was recorded.

T1 sequence (P50637 whole entry): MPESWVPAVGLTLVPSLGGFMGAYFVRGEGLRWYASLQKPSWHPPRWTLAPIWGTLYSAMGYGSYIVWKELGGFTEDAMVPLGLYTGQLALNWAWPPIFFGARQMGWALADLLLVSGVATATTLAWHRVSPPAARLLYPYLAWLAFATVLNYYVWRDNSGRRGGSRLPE

| Compound | TSPO-PET signal in the brain (TSPO; EAE vs naive mice) | TSPO-PET uptake in cervical/thoracic and lumbar spinal cords (TSPO; EAE vs naive mice, 50-60 min post-injection) | CNS tracer binding (TSPO; control mice (CFA emulsion without MOG) vs naive untouched mice) | pro-inflammatory mediators and survival (TREM1) | EAE disease severity (TREM1 signaling; 10 mg/kg daily i.p. for 10 days from pre EAE stage) | EAE disease severity (TREM1 signaling; 15 mg/kg daily i.p. for 10 days from pre EAE stage) |
| --- | --- | --- | --- | --- | --- | --- |
| CCN(CC)C(=O)[C@H]1CCCc2c1c1c(OC)cccc1n2CC[18F] [[^18F]GE-180] | no significant differences | significantly reduced uptake | decreased |  |  |  |
| CC(C)[C@]12O[C@H]1[C@@H]1O[C@]13[C@]1(O[C@H]1C[C@H]1C4=C(CC[C@@]13C)C(=O)OC4)[C@@H]2O [triptolide] |  |  |  | reduce pro-inflammatory mediators and increase survival |  |  |
| LP17: 17 mer peptide decoy receptor attenuating TREM1 signaling; sequence LQVTDSGL YRCVIYHPP (LQVTDSGLYRCVIYHPP) |  |  |  | reduce pro-inflammatory mediators and increase survival | not | Significant attenuation of disease severity |
